According to patent US20240263147A1, “CARDIAC ORGANOID AND ANTI-ELECTRO-MITOCHONDRIAL DESYNCHRONIZATION THERAPY” (YISSUM RESEARCH DEVELOPMENT COMPANY OF THE HEBREW …, priority 2021, published 2024):
“Also recorded” adds a separate entry of the source.

What was measured:
[1] = tested on: vascularized cardiac organoids; assay: Integrated metabolic-electro-mechanical sensor chip: simultaneous contraction, field potential and interstitial oxygen; type: cell-based, human; details: 10 μM KB-R7943
Method: The MEA design and printed connections enabled access to 45 different electrodes inside the platform intermittently via a compatible sensor circuit (FIGS. 9A-9B). Spontaneous cardiac field potentials (FPs) were recorded from cardiac organoids using an integrated signal conditioning circuit (AD8232®), with a 2-pole adjustable high-pass filter, 3-pole adjustable low-pass filter, adjustable gain, and medical instrumentation amplifiers to extract, amplify, and filter the extracellular field potential of the organoids remotely within the confined well. […] Spontaneous cardiac field potentials were measured at 100 Hz sampling rate in each microwell. Field potential rhythm frequency was calculated in real-time using a custom-made MATLAB® software imposing Fourier Transformation (FFT) on the evolving kinetic data (FIGS. 9C-9D).
Real-time oxygen measurement was performed based on previously described elements. Briefly, phosphorescent ruthenium microprobes (CPOx-50-RuP) show a decrease in phosphorescence decay time as a function of oxygen concentration, allowing to measure the oxygen content. Controlled sinusoidal modulated 532-nm LED signal excites the embedded oxygen sensors and emits a sinusoidal amplitude-modulated light at 605 nm that is shifted in phase due to oxygen quenching. A phase shift is measured between the emission hardware-filtered first detector (PMT), and a second excitation detector (cPMT). […] Measurements were carried out at a 10 Hz sampling rate. Contraction rate and oxygen rhythm frequency were calculated in real-time using a custom-made MATLAB® software imposing Fourier Transformation (FFT) on the evolving kinetic data. Using custom MATLAB code, we calculated the cardiac organoid contraction rates directly from our oxygen reader based on the emission intensity measured in peak-to-peak voltage from the oxygen bead and its displacement using the second PMT system. Cardiac displacement was measured by the embedded oxygen beads inside the cardiac organoids during a contraction. When the beads move at different distances from the focal point, changes in peak-to-peak voltage occurred leading to the detection of the contraction behavior.
For simultaneous real-time oxygen, contraction rate, and field potential measurements, cardiac organoids were cultured in RPMI supplemented with B27 minus insulin, 5 ng/ml VEGF and 0.1% DMSO (control) or 10 μM KB-R7943 mesylate. Real-time oxygen, contraction rate, and field potential were measured after 0, 15, and 25 minutes of exposure to DMSO (control) or 10 μM KB-R7943 mesylate.

[2] = tested on: hiPSC-derived cardiomyocytes; assay: Live imaging of mitochondrial calcium (Rhod-2AM) and visual contraction analysis in 2D culture; type: cell-based, human; details: for decrease of magnitude of [Ca2+]m oscillations / reduction of contraction magnitude: n=4
Method: (§1) Fast phase-contrast imaging (17 frames per second) was performed at suitable magnification using an LSM-700 Zeiss microscope. The time-lapse micrograph was analyzed using a custom MATLAB® code. Briefly, multiple regions of interest (ROIs) were selected on the cardiac tissue borders, producing a distinct area with changes representative of the cardiac contraction. Dynamic changes in the ROI intensity were measured over time and converted into beating rates using Fast Fourier Transformation (FFT). Contractility was calculated based on the frequency amplitude magnitude.
For mitochondrial calcium live imaging, different hiPSC-derived cardiomyocytes were cultured in RPMI supplemented with B27 minus insulin, and 0.1% DMSO (control) or […] KB-R7943 mesylate (Tocris Bioscieice, USA), Mean mitochondrial calcium was measured using live imaging of Rhod-2AM dye after 0, 30, and 90 seconds of exposure to DMSO (control) or 10 μM MCU inhibitor KB-R7943 mesylate
Mitochondrial calcium uptake within human iPSC-derived cardiomyocytes was measured using Rhod-2AM dye according to the manufacturer's instructions (Abcam, USA). Cells were loaded with […] Rhod-2AM in RPMI supplemented with B27-I for 30 min at 37° C., washed with PBS, and incubated with RPMI supplemented with […] KB-R7943 or 0.1% DMSO, and B27-I. Measurements were taken continuously using an incubated LSM-700 Zeiss microscope at 5% CO2 and 37° C. Rhod-2AM measurement was conducted by excitation at 552 nm at a 10 Hz sampling rate. Mitochondrial calcium uptake was calculated by the change of the mean emission intensity at 581 nm. The time-lapse micrograph was analyzed using multiple regions of interest (ROIs) and was selected based on Mitotracker staining, producing a distinct area with changes representative to mitochondrial networks. Changes in fluorescent intensity were used to determine oscillation rate and amplitude.

[3] = tested on: vascularized cardiac organoids; assay: Metabolic flux balance analysis and ATP production in cardiac organoids; type: cell-based, human; details: 10 μM KB-R7943, within 20 minutes of exposure
Method: Amperometric 4-analytes sensors (B.LV5) were purchased from Innovative Sensor Technology (IST, Switzerland). Measurements were carried out and calibrated to sensitivity decrease by an on-chip potentiostat (IST, Switzerland). Oxygen, glucose, lactate, and glutamine fluxes were measured by calculating the change in metabolite concentration over time. Glutamine measurement allowed us to calculate lipid metabolism fluxes. Oxidative phosphorylation flux was calculated by dividing the oxygen uptake rate by six. The inventors estimated 32 ATP molecules generated by the complete oxidation of glucose. Glycolysis flux was calculated by dividing the lactate production rate by two, with the maximal rate defined by glucose uptake rate minus the oxidative phosphorylation flux. ATP production in glycolysis was estimated to be two molecules per molecule of glucose. Glutaminolysis was calculated directly by glutamine uptake. ATP production in glutaminolysis was estimated to be three molecules per molecule of lactate generated.

[4] = tested on: vascularized cardiac organoids; assay: Integrated metabolic-electro-mechanical sensor chip: simultaneous contraction, field potential and interstitial oxygen; type: cell-based, human; details: for reversal of mitoxantrone-induced arrhythmic behavior: 100 μM metformin concurrent with 10 μM mitoxantrone
[5] = tested on: hiPSC-derived vascularized cardiac organoids; assay: Beating of vascularized cardiac organoids under pharmaceutical stimulation; type: cell-based, human
Method: hiPS-derived cardiomyocytes and microvascular cardiac endothelial cells (VEC Technologies, USA) were counted and mixed in a 2:1 ratio in growth factor reduced Matrigel (BD Biosciences, San Jose, CA) at a cell density of 6.8×10^4 cells per μl. A volume of 1.1 μl of the gel-imbedded mixture (7.48×10^4 cells) was injected into each microwell and left to form spontaneously in RPMI-1640 supplemented with B27 minus insulin and 5 ng/ml vascular endothelial growth factor (VEGF-A, Peprotech) until their spontaneous beating was regained after 6-10 days.
as §1

[6] = tested on: porcine cardiac tissue
Description: The tissue was procured post-mortem from a 70 kg domestic female pig that underwent a laparoscopic liver operation (Ethical approval number MD-21-16533-3) and was euthanized using a lethal dose of potassium chloride. […] The lung was retracted, and the pericardium was incised.
The anterior wall of the left ventricle was incised from base to apex and several slices measuring 2-3 mm in length and 1-2 mm thick were obtained using a #10 scalpel blade. Cardiac tissues were further cut into 500±200 μm thick slices and washed thoroughly with 37° C. pre-warmed ex-vivo medium composed of M199 medium, supplemented with 1×insulin-transferrin-selenium (ITS), 10% fetal bovine serum (FBS), and 5 ng/mL vascular endothelial growth factor (VEGF), and 10 mM of 2-[4-(2-hydroxyethyl)piperazin-1-yl]ethanesulfonic acid (HEPES).
The cardiac explants were then embedded with oxygen sensors, placed on the MEAs chip, and transferred to a 37° C. temperature-controlled incubation chamber that contains M199 medium supplemented with 1× ITS, 10% FBS, 5 ng/mL VEGF, and 10 mM HEPES to support long term function, as previously described. The explant was continuously point-stimulated at 2 Hz cycle length. Contraction, field potential, and oxygen were assessed using the integrated metabolic-electro-mechanical sensor chip. […]

[7] = tested on: hiPSC-derived cardiomyocytes; assay: Live imaging of mitochondrial calcium (Rhod-2AM) and visual contraction analysis in 2D culture; type: cell-based, human; details: n=4

N=C(N)SCCc1ccc(OCc2ccc([N+](=O)[O-])cc2)cc1 [KB-R7943]
effect on coupling of mitochondrial and electro-mechanical activity [1]: caused uncoupling between mitochondrial and electro-mechanical activity, resulting in arrhythmic cardiac behavior
effect on magnitude of organoid contraction and depolarization [1]: comparable and parallel decrease
effect on oxygen uptake of the cardiac organoid [1]: progressive decrease in the oxygen uptake
effect on magnitude of oxygen oscillations ([1]; n=9): significantly and progressively decreased
effect on [Ca2+]m concentration ([2]; 10 μM KB-R7943): no significant difference
decrease of magnitude of [Ca2+]m oscillations ([2]; 10 μM KB-R7943, 30 seconds): 60%
reduction of contraction magnitude ([2]; 10 μM KB-R7943, 30 seconds): 45%
decrease of magnitude of [Ca2+]m oscillations ([2]; 10 μM KB-R7943, 90 seconds): 78%
reduction of contraction magnitude ([2]; 10 μM KB-R7943, 90 seconds): 70%
effect on cardiomyocyte contractility and [Ca2+]m oscillation amplitude ([2]; 10 μM KB-R7943, acute): dramatically decreases cardiomyocyte contractility, and [Ca^2+]m oscillation amplitude; also recorded: decreases the magnitude of cardiomyocyte contraction
effect on cardiomyocyte contraction frequency (rate) ([2]; 10 μM KB-R7943, short term exposure): without affecting contraction rate; also recorded: did not significantly affect
effect on ATP generation (production) [3]: decrease in ATP production; also recorded: decrease in ATP generation
increase of contraction frequency, oxygen oscillation rate and field potential oscillation frequency (all three rates) ([4]; 10 μM KB-R7943, within 35 minutes of exposure, n=9): 2.5 fold

CCCCc1oc2ccccc2c1C(=O)c1cc(I)c(OCCN(CC)CC)c(I)c1 [amiodarone]
decrease of contraction / contraction amplitude ([5]; 10 μM amiodarone, n=6): 28%
contraction rate ([5]; 10 μM amiodarone, spontaneous beating 66±5 bpm, n=6): 52±4 bpm

CNC[C@H](O)c1ccc(O)c(O)c1 [epinephrine]
contraction (beating) rate [5]: 88±7 bpm
effect on contractility and contraction rate [4]: increases the contractility and contraction rate
effect on mean interstitial oxygen concentration [4]: decreasing the mean interstitial oxygen concentration
increase of contraction [4]: 33%
organoid contraction frequency [4]: 1.95 Hz

CN(C)C(=N)N=C(N)N [metformin]
beating frequency ([6]; 100 μM metformin concurrent with 10 μM mitoxantrone): 1.4 Hz
reversal of mitoxantrone-induced arrhythmic behavior [4]: reverts the effect, displaying regular heart contraction and field potential; also recorded: reversed this effect
reversal of mitoxantrone-induced arrhythmic behavior ([4]; listed as Metformin): rescues the arrhythmic cardiac behavior
beating rate ([4]; metformin (100 μM) combined with mitoxantrone (10 μM), from 82 BPM): 61 BPM
increase in mean mitochondrial calcium content ([7]; 100 μM metformin added to 10 μM mitoxantrone treatment): 3.4 fold

O=C1c2c(O)ccc(O)c2C(=O)c2c(NCCNCCO)ccc(NCCNCCO)c21 [mitoxantrone]
beating frequency (cardiac rhythm) ([6]; female, pig, 10 μM): 2 Hz
effect on mechanical contraction, electrical depolarization and oxygen concentration ([4]; mitoxantrone exposure (10 μM)): markedly decreased
contraction rate ([4]; mitoxantrone exposure (10 μM), from 53 BPM): 79 BPM
decrease in mitochondrial calcium ([7]; 10 μM mitoxantrone alone): 79%
